Measurements as given in US8697641B2, “4-amino-4-oxobutanoyl peptide cyclic analogues, inhibitors of viral replication” (Achillion Pharmaceuticals, Inc., priority 2008, dated 2014).

Test system: Hepatitis C replicon
Experiment: HCV replicon assay (NPT ELISA readout) in Huh-7 replicon-containing cells
Assay type: cell-based, Hepatitis C virus
Settings: Hepatitis C virus, 72 h; HCV replicon in Huh-7 cells, three days incubation
How it was run: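 Huh-7 cells carrying a neo-containing HCV subgenomic replicon (NS3-NS5B) were plated overnight, then exposed to compound (generally 6 concentrations, 10 to 0.03 μM) for three days at 37 °C. Replication was read as NPT level by captured ELISA; interferon alpha served as positive control.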

SMILES | EC50 [nM]
COc1ccc2c(O[C@@H]3C[C@H]4C(=O)N[C@@H](C(=O)NS(=O)(=O)C5CC5)C/C=C\CCCCC[C@H](CC(=O)N5CCCCC5)C(=O)N4C3)cc(-c3ccccc3)nc2c1 [Compound 56, (3R,12R,16R,17aS, Z)-N-(cyclopropylsulfonyl)-16-(7-methoxy-2-phenylquinolin-4-yloxy)-1,13-dioxo-12-(2-oxo-2-(piperidin-1-yl)ethyl)-2,3,4,7,8,9,10,11, 12,13,15,16,17,17a-tetradecahydro-1H-pyrrolo[1,2-a][1,4] diazacyclopentadecine-3-carboxamide] | 1000 to 10000
COc1ccc2c(O[C@@H]3C[C@H]4C(=O)N[C@]5(C(=O)NS(=O)(=O)C6CC6)C[C@H]5/C=C\CCCCC[C@H](CC(=O)N5C(C)CCCC5C)C(=O)N4C3)cc(-c3ccccc3)nc2c1 (stereo partly drawn) [Compound 69, (2R,6R,13aS, 14aR,16aS,Z)-N-(cyclopropylsulfonyl)-6-(2-(2,6-dimethylpiperidin-1-yl)-2-oxoethyl)-2-(7-methoxy-2-phenylquinolin-4-yloxy)-5,16-dioxo-1,2,3,5,6,7,8,9,10,11, 13a,14,14a,15,16,16a-hexadecahydrocyclopropa [e]pyrrolo[1,2-a][1,4] diazacyclopentadecine-14a-carboxamide] | < 1000
COc1ccc2nc(-c3ccccn3)cc(C(=O)N[C@@H]3C[C@H]4C(=O)N[C@]5(C(=O)NS(=O)(=O)C6CC6)C[C@H]5/C=C\CCCCC[C@H](CC(=O)N5CCC(F)(F)CC5)C(=O)N4C3)c2c1 [Compound 97, (2R,6R,14aR,16aS,Z)-N-(cyclopropylsulfonyl)-6-(2-(4,4-difluoropiperidin-1-yl)-2-oxoethyl)-2-(6-methoxy-2-(pyridin-2-yl)quinoline-4-carboxamido)-5,16-dioxo-1,2,3,5,6,7,8,9,10,11, 13a,14,14a,15,16,16a-hexadecahydrocyclopropa [e]pyrrolo[1,2-a][1,4] diazacyclopentadecine-14a-carboxamide] | < 1000
COc1ccc2c(O[C@@H]3C[C@H]4C(=O)N[C@]5(C(=O)NS(=O)(=O)C6CC6)C[C@H]5/C=C\CCCCC[C@H](CC(=O)N5CCCC(C)C5)C(=O)N4C3)cc(-c3ccccc3)nc2c1 (stereo partly drawn) [Compound 78, (2R,6R,13aS, 14aR,16aS,Z)-N-(cyclopropylsulfonyl)-2-(7-methoxy-2-phenylquinolin-4-yloxy)-6-(2-(3-methylpiperidin-1-yl)-2-oxoethyl)-5,16-dioxo-1,2,3,5,6,7,8,9,10,11, 13a,14,14a,15,16,16a-hexadecahydrocyclopropa [e]pyrrolo[1,2-a][1,4] diazacyclopentadecine-14a-carboxamide] | < 1000
COc1ccc2c(O[C@@H]3C[C@H]4C(=O)N[C@]5(C(=O)NS(=O)(=O)C6CC6)C[C@H]5/C=C\CCCCC[C@H](CC(=O)N5CCCCC5)C(=O)N4C3)cc(-c3ccccc3)cc2c1 [Compound 120, (2R,6R,14aR,16aS,Z)-N-(cyclopropylsulfonyl)-2-(6-methoxy-3-phenylnaphthalen-1-yloxy)-5,16-dioxo-6-(2-oxo-2-(piperidin-1-yl)ethyl)-1,2,3,5,6,7,8,9,10,11, 13a,14,14a,15,16,16a-hexadecahydrocyclopropa [e]pyrrolo[1,2-a][1,4] diazacyclopentadecine-14a-carboxamide] | < 1000
COc1ccc2c(O[C@@H]3C[C@H]4C(=O)N[C@]5(C(=O)NS(=O)(=O)C6CC6)CC5/C=C\CCCCC[C@H](CC(=O)N5CCC(C(F)(F)F)CC5)C(=O)N4C3)cc(-c3cccnc3)nc2c1C (stereo partly drawn) [Compound 131, (2R,6R,14aR,16aS,Z)-N-(cyclopropylsulfonyl)-2-(7-methoxy-8-methyl-2-(pyridin-3-yl)quinolin-4-yloxy)-5,16-dioxo-6-(2-oxo-2-(4-(trifluoromethyl)piperidin-1-yl)ethyl)-1,2,3,5,6,7,8,9,10,11, 13a,14,14a,15,16,16a-hexadecahydrocyclopropa [e]pyrrolo[1,2-a][1,4] diazacyclopentadecine-14a-carboxamide] | < 1000
COc1ccc2c(O[C@@H]3C[C@H]4C(=O)N[C@]5(C(=O)NS(=O)(=O)C6CC6)C[C@H]5/C=C\CCCCC[C@H](CC(=O)N5CC[C@@H](C(C)(C)N)C5)C(=O)N4C3)cc(-c3ccccc3)nc2c1 [Compound 107, (2R,6R,14aR,16aS, Z)-6-(2-((R)-3-(2-aminopropan-2-yl)pyrrolidin-1-yl)-2-oxoethyl)-N-(cyclopropylsulfonyl)-2-(7-methoxy-2-phenylquinolin-4-yloxy)-5,16-dioxo-1,2,3,5,6,7,8,9,10,11, 13a,14,14a,15,16,16a-hexadecahydrocyclopropa [e]pyrrolo[1,2-a][1,4] diazacyclopentadecine-14a-carboxamide] | < 1000
COc1ccc2c(O[C@@H]3C[C@H]4C(=O)N[C@]5(C(=O)NS(=O)(=O)C6CC6)C[C@H]5/C=C\CCCCC[C@H](CC(=O)N5CC(C)OC(C)C5)C(=O)N4C3)cc(-c3ccccc3)nc2c1 (stereo partly drawn) [Compound 76, (2R,6R,13aS, 14aR,16aS,Z)-N-(cyclopropylsulfonyl)-6-(2-(2,6-dimethylmorpholino)-2-oxoethyl)-2-(7-methoxy-2-phenylquinolin-4-yloxy)-5,16-dioxo-1,2,3,5,6,7,8,9,10,11, 13a,14,14a,15,16,16a-hexadecahydrocyclopropa [e]pyrrolo[1,2-a][1,4] diazacyclopentadecine-14a-carboxamide] | < 1000
COc1ccc2c(O[C@@H]3C[C@H]4C(=O)N[C@]5(C(=O)NS(=O)(=O)C6CC6)C[C@H]5/C=C\CCCCC[C@H](CC(=O)N5CCCC(F)(F)C5)C(=O)N4C3)cc(-c3ccccn3)nc2c1Cl [Compound 91, (2R,6R,14aR,16aS,Z)-2-(8-chloro-7-methoxy-2-(pyridin-2-yl)quinolin-4-yloxy)-N-(cyclopropylsulfonyl)-6-(2-(3,3-difluoropiperidin-1-yl)-2-oxoethyl)-5,16-dioxo-1,2,3,5,6,7,8,9,10,11, 13a,14,14a,15,16,16a-hexadecahydrocyclopropa [e]pyrrolo[1,2-a][1,4] diazacyclopentadecine-14a-carboxamide] | < 1000
COc1ccc2c(O[C@@H]3C[C@H]4C(=O)N[C@H](C(=O)NS(=O)(=O)C5CC5)C/C=C\CCCCC[C@H](CC(=O)N5CCCCC5)C(=O)N4C3)cc(-c3ccccc3)nc2c1 [Compound 57, (3S,12R,16R,17aS,Z)-N-(cyclopropylsulfonyl)-16-(7-methoxy-2-phenylquinolin-4-yloxy)-1,13-dioxo-12-(2-oxo-2-(piperidin-1-yl)ethyl)-2,3,4,7,8,9,10,11, 12,13,15,16,17,17a-tetradecahydro-1H-pyrrolo[1,2-a][1,4] diazacyclopentadecine-3-carboxamide] | 1000 to 10000
COc1ccc2c(O[C@@H]3C[C@H]4C(=O)N[C@]5(C(=O)NS(=O)(=O)C6CC6)C[C@H]5/C=C\CCCCC[C@H](CC(=O)N5CCCCC5)C(=O)N4C3)cc(-c3ccccc3)nc2c1 [Compound 48, (2R,6R,13aS, 14aR,16aS,Z)-N-(cyclopropylsulfonyl)-2-(7-methoxy-2-phenylquinolin-4-yloxy)-5,16-dioxo-6-(2-oxo-2-(piperidin-1-yl)ethyl)-1,2,3,5,6,7,8,9,10,11, 13a,14,14a,15,16,16a-hexadecahydrocyclopropa [e]pyrrolo[1,2-a][1,4] diazacyclopentadecine-14a-carboxamide] | 1000 to 10000
